{"source": "patent US20120165403A1", "about": "“METHODS OF INHIBITING THE ACTIVITY OF HSP90 AND/OR ARYL HYDROCARBON RECEPTOR” (UNIVERSITY OF ROCHESTER, priority 2004, published 2012)", "key": {"[1]": {"biological_target": "T1, ARNT (Mus musculus, UniProt P53762)", "T1 construct": "made in house; host or cells: coupled transcription/translation in rabbit reticulocyte lysate (TNT, Promega), 35S-labelled", "T1 sequence (P53762 whole entry)": "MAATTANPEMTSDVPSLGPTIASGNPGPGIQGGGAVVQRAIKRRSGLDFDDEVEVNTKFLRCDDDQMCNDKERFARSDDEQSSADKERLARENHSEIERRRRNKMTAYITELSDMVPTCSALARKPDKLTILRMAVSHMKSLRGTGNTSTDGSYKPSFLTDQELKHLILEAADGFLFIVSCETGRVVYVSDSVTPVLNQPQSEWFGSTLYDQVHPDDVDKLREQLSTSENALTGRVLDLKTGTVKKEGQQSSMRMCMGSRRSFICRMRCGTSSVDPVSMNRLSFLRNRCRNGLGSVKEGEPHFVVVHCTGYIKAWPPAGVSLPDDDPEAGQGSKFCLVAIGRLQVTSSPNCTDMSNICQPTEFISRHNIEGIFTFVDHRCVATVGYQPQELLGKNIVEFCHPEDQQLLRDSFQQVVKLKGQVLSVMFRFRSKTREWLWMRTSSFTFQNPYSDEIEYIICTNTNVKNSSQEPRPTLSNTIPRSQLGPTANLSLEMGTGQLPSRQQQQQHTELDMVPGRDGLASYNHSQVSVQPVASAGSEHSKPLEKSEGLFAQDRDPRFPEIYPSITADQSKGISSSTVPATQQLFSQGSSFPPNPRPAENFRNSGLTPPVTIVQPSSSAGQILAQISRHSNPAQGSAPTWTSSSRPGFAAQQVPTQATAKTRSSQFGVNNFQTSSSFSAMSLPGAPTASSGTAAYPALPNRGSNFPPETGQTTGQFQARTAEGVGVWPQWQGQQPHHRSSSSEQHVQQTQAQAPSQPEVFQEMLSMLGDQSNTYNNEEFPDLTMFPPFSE", "assay": "Affinity chromatography on EGCG-conjugated Sepharose, in vitro translated ARNT", "format": "binding, murine", "settings": "35S-ARNT in vitro translated in RRL", "source_text": "Murine AhR and ARNT cDNA (obtained from J. Whitlock and O. Hankinson, respectively) were inserted into pcDNA3 (Invitrogen, Carlsbad, Calif.). Chicken hsp90 constructs (FIG. 5), c90711hsp (wild-type), c90G94D (wild-type point mutant gly94→Asp (Grenert et al., J. Biol. Chem. 272:23843-23850 (1997), which is hereby incorporated by reference in its entirety), c90D92A (wild-type point mutant Asp92→Ala (Sullivan et al., J. Biol. Chem. 268:20373-20379 (1993), which is hereby incorporated by reference in its entirety), c90N221 (wild-type truncation mutant encoding a.a. 221-728 (Sullivan et al., J. Biol. Chem. 268:20373-20379 (1993), which is hereby incorporated by reference in its entirety)), c90N303 (a.a. 303-728) and c90N538 (a.a. 538-728) were kind gifts from Dr. D. Toft (Rochester, Minn.). The C-terminal truncation mutant c900507 (a.a. 1-221) was obtained from Dr. L. Neckers (Rockville, Md.) (Grenert et al., J. Biol. Chem. 272:23843-23850 (1997); Marcu et al., J. Biol. Chem. 275:37181-37186 (2000), which are hereby incorporated by reference in their entirety). Human p23 cDNA was excised from pQE80-p23 (obtained from W. Chan Stockton, Calif.) by sequential digests using the restriction enzymes Sad (3′-end) and BamHI (5′-end) and inserted into the similarly digested pET28a (Novagen, Madison, Wis.). […]"}, "[2]": {"system": "hsp90", "assay": "Sucrose density gradient sedimentation of hsp90 in Hepa cytosol", "format": "biochemical, mouse", "settings": "2 h, 200 μM EGCG or 10 nM TCDD", "description": "Competitive binding of EGCG was analyzed by velocity sedimentation on sucrose gradients in a vertical tube rotor (Tsui et al., Can. J. Physiol. Pharmacol 59:927-931 (1981); Jensen et al., Toxicol. Sci. 64:41-56 (2001), which are hereby incorporated by reference in their entirety). Hepa cytosol (100 μl of 2.5 mg/ml) or BP^rCl cytosol was incubated for two hours at room temperature with either 3 nM ^3H-TCDD, 0.5 nM ^3H-TCDD, or 5 nM ^3H-BNF, in the presence of DMSO, 150-fold excess TCDF, 1 μM 3M4NF, or EGCG. […] For competitive binding assays, fractions were assayed for radioactivity with ScintiVerse (Fisher Scientific, Fair Lawn, N.J.). […] For AhR and hsp90 density analysis, protein contained within an aliquot (200 of each fraction was separated by SDS-PAGE (7.5% acrylamide resolving gel) and transferred to PVDF membranes. Membranes were probed with antibodies recognizing AhR (Biomol) or hsp90 (Stressgen, Victoria, BC Canada). A crude estimate of the sedimentation coefficient for the EGCG shifted AhR complex was calculated by the method of Martin and Ames (Martin et al., J. Biol. Chem. 236:1372-1379 (1961), which is hereby incorporated by reference in its entirety) relative to the ^14C-BSA (4.4S) standard."}}}
{"smiles": "O=C(O[C@@H]1Cc2c(O)cc(O)cc2O[C@@H]1c1cc(O)c(O)c(O)c1)c1cc(O)c(O)c(O)c1", "note": "[EGCG, epigallocatechin gallate]", "values": [{"measurement": "binding of ARNT to immobilized EGCG", "setting": "[1]", "value": "incapable of binding immobilized EGCG"}, {"measurement": "effect on the sedimentation pattern of hsp90", "setting": "[2]", "value": "dramatically altered the sedimentation pattern of hsp90"}]}
